The text below walks through data of article PMC9267059, “Selective Inhibition of Murine Cytomegalovirus Viral Gene Expression by the Antiviral Peptide TAT-I24” (International Journal of Molecular Sciences, 2022).

One assay deals with double-stranded DNA. Conditions: cited from earlier work. Here is the method: To determine whether reduction of host-gene expression early after MCMV infection is related to the ability of the peptide to bind DNA, variants of TAT-I24 were generated with modifications of the TAT fusion partner (Figure 5A). The peptides were tested for their potency in inhibiting MCMV replication and their binding to DNA. […] Inhibition is independent of whether these are immediate-early, early or late genes, as they were all reduced to a similar extent, thereby excluding a specific effect of the peptide on a particular viral gene.

Assay [1] concerns MCMV viral gene expression. Description: MCMV viral gene transcript levels by quantitative PCR relative to Gapdh. The assay is classed as cell-based, murine cytomegalovirus. Here is the method:
NIH/3T3 fibroblasts were infected with MCMV expressing luciferase at low MOI (MOI 1) with the aid of centrifugal enhancement. Infections were performed either in the absence or presence of 10 µM TAT-I24. Cells were lysed after 30 min or 2-, 4-, 8- and 24-h post-infection. Total RNA was isolated and treated with DNase I to remove viral DNA before synthesis of the cDNA. Levels of viral transcripts were then analyzed by quantitative PCR and normalized to mRNA levels of the glyceraldehyde-3-phosphate dehydrogenase (Gapdh) housekeeping gene.
NIH/3T3 cells were seeded at a density of 8 × 10^4 cells/well of a 24-well plate and allowed to attach overnight. On the next day, MCMV strain delm157-luc rep was adsorbed to cells (MOI 1) in the absence or presence of 10 µM TAT-I24 and centrifuged twice at 800× g for 15 min. Cells were then kept at 37 °C and lysed after the indicated time-points.

The subject of assay [2] is host-cell transcripts in NIH/3T3 cells infected with MCMV. Description: Host-cell transcript levels by quantitative PCR in MCMV-infected NIH/3T3 cells. It is filed as cell-based.
The mark [3] stands for this setting: MCMV MOI 1, 10 µM, 2 h post-infection.
Setting [4] is: MCMV MOI 1, 10 µM, 4 h post-infection.
Where [5] appears, read: MCMV MOI 1, 2 h post-infection, four independent experiments.

For “GRKKRRQRRRPPQCLAFYACFC [TAT-I24, antiviral peptide, a fusion of the 9-mer peptide I24 and the TAT peptide]”, the “binding to DNA” value in the assay on double-stranded DNA is listed as “binds DNA with high affinity”. Further, in assay [1] (MOI comparison experiment, MOI 1 with 10 µM, 2 h post-infection, two independent experiments), the “reduction of ie1 transcript levels” value is reported as 90%. Besides, in assay [1] (NIH/3T3, MCMV MOI 1, 10 µM), the “expression of spliced late gene m129/131” value was “reduced”, the “gene expression of M94 (late gene)” value is listed as “strongly inhibited”, the “levels of m152 transcripts (early gene)” value is recorded as “strongly reduced” and the “m169 mRNA levels (early gene)” value was “strongly reduced”. Also, in assay [1] (NIH/3T3, MCMV MOI 1, 10 µM, 2 h post-infection, four independent experiments), the “reduction of ie1 transcript levels compared to untreated cells” value was “more than 90%”. In assay [1] (NIH/3T3, MCMV MOI 1, 2 h post-infection, four independent experiments), the “ie1 transcript levels, comparison of peptides” value is listed as “significant inhibitory effect”. Further, in assay [2] (MCMV MOI 1, 10 µM), the Ccl5 transcript levels result was “reduction”; the “Gadd45a mRNA levels, untreated vs peptide-treated cells” value was “no difference”; the “Herpud1 transcript levels, untreated vs peptide-treated cells” value is “no differences”; the Top2a transcript levels result was “no significant effect”. Also, in assay [2] (setting [3]), the Ccl7 transcript levels result is listed as “reduced”, the Cxcl10 transcript levels entry was “reduced”, the Ifit1 transcript levels result is “significantly reduced” and the Nfkbia transcript levels result is on record as “reduced”. Moreover, in assay [2] (setting [4]), the Ccl7 transcript levels entry is “started to increase”; the Cxcl10 transcript levels entry is on record as “started to increase”; the “Nfkbia mRNA levels” value is “comparable between untreated and peptide-treated cells”. The “Ifit1 mRNA levels” value in assay [2] (MCMV MOI 1, 10 µM, after 4 h) is “also increased in the presence of the peptide”. In assay [2] (setting [5]), the “Ccl5 expression, comparison of peptides” value is given as “significant reduction”; the “Ccl7 expression, comparison of peptides” value is “significant reduction”; the “Ifit1 expression, comparison of peptides” value is on record as “significant reduction”.
